Experimental data taken from US6548543B1, “Remedies or preventives containing cyclopentenone compounds as the active ingredient” (Takara Shuzo Co., Ltd., priority 1998, dated 2003).
pIC50: −log10 of the molar value.

How the values were obtained:
[1] = test system: adhesion between vascular endothelial cells and HL-60 cells; assay: Adhesion of HL-60 cells to TNF-α-stimulated vascular endothelial cells; type: cell-based, Human; settings: for Adhesion rate: TNF-α-stimulated endothelial cells; for Suppression of TNF-α-induced increase in adhesion rate (statement): 10^−7 to 10^−4 M, dose-dependent
Procedure: Human vascular endothelial cells (sold by Sanko Junyaku) suspended in RPMI-1640 medium (Gibco) containing 10% FCS (HyClone) at a concentration of 1×10^5 cells/ml. 100 μl/well of the suspension was seeded into a 96-well microtiter plate.
100 U/ml of human recombinant TNF-α (Promega) was added to monolayer of vascular endothelial cells after incubation at 37° C. for 2 days in a 5% CO2 incubator. The plate was incubated 37° C. for 6 hours in a 5% CO2 incubator to prepare vascular endothelial cells stimulated with TNF-α.
On the other hand, cyclopentenone, GM or dipropionylcyclopentenone at a varying concentration was added to HL-60 cells suspended in RPMI-1640 medium containing 10% FCS at a concentration of 1×10^6 cells/ml. The cells were cultured at 37° C. for 3 hours in a 5% CO2 incubator. After cultivation, 5 μM of 5(-and-6)-carboxyfluorescein diacetate, succinimide ester (Molecular Probe) as a fluorescent agent was added thereto and reacted at 37° C. for 10 minutes. The cells were washed twice with RPMI-1640 medium and suspended in RPMI-1640 medium containing 10% FCS to prepare a suspension of fluorescence-labeled HL-60 cells at a concentration of 1×10^6 cells/ml.
100 μl/well of the fluorescence-labeled HL-60 cells were overlaid onto the vascular endothelial cells stimulated with TNF-α. Cyclopentenone, GM or dipropionylcyclopentenone at a varying concentration was added thereto. The plate was incubated at 37° C. for 20 minutes in a 5% CO2 incubator for adhesion reaction between vascular endothelial cells and HL-60 cells.
After the adhesion reaction, the plate was washed to remove non-adhesive cells. 1% Triton X (Nacalai Tesque) was added thereto to destroy adhesive cells. The fluorescence intensity was measured using filters for 485/22 nm (excitation) and 530/25 nm (emission).
The adhesion rate which represents the ratio of cells adhered to vascular endothelial cells was determined defining the fluorescence intensity for 1×10^5 fluorescence-labeled cells as 100%.

[2] = test system: spleen lymphocytes stimulated with Ehrlich ascites carcinoma cells; assay: Cancer cell-specific proliferation of spleen lymphocytes from treated tumor-bearing mice; type: in vivo, ddY mice; settings: for Growth of spleen lymphocytes on stimulation with cancer cells (statement): mice administered intraperitoneally
Procedure: ddY mice (female, 7 weeks old) were purchased from Japan SLC and pre-bred 1 week before using in experiments.
1×10^6 Ehrlich ascites carcinoma cells were intraperitoneally inoculated to each mouse. 10 mg/kg of cyclopentene, 30 mg/kg of GM or 10 mg/kg of dipropionylcyclopentene was intraperitoneally administered to the mouse on the day after the inoculation. Saline was administered to a control mouse.
(§1) A spleen was taken out from the mouse 10 days after the inoculation with cancer cells, finely minced and suspended in RPMI-1640 medium (Gibco) containing 10% FCS (HyClone) to obtain a single cell suspension. Adhesive cells in the cell suspension adhered to a plastic Petri dish were removed and non-adhesive cells were used as spleen lymphocytes.
The spleen lymphocytes were suspended in RPMI-1640 medium containing 10% FCS at a concentration of 2×10^6/ml. 100 μl/well of the suspension was seeded into a microtiter plate.
Stimulated cells were prepared as follows. Mitomycin C (Kyowa Hakko Kogyo) was added to a concentration of 50 μg/ml to Ehrlich ascites carcinoma cells suspended in RPMI-1640 medium at a concentration of 2×10^6 cells/ml. The cells were treated at 37° C. for 30 minutes, washed twice and then suspended in RPMI-1640 medium containing 10% FCS to prepare stimulated cells at a concentration of 2×10^6 cells/ml. 100 μl of the thus prepared stimulated cells was overlaid onto each well of the plate into which 100 μl/well of the spleen lymphocytes had been added. The plate was incubated at 37° C. for 5 days in a 5% CO2 incubator. 37 kBq of ^3H-thymidine (Daiichi Pure Chemicals) was added to the well to pulse-label the cells on the day before the completion of the cultivation. After cultivation, the cells were harvested on a glass filter to measure the radioactivity.

NK cells = type: in vivo, ddY mice; settings: mice administered intraperitoneally
Procedure: ddY mice (female, 7 weeks old) were purchased from Japan SLC and pre-bred for 1 week before using in experiments.
1×10^6 Ehrlich ascites carcinoma cells were intraperitoneally inoculated to each mouse. 10 mg/kg of cyclopentenone, 30 mg/kg of GM or 10 mg/kg of dipropionylcyclopentenone was intraperitoneally administered to the mouse on the day after the inoculation. Saline was administered to a control mouse.
as §1, with “medium” for “medium (Gibco)”, “cells” for “cells in the cell suspension”, “removed from the cell suspension” for “removed”, “NK cells.” for “spleen lymphocytes.”
The NK cells were suspended in RPMI-1640 medium containing 10% FCS at a concentration of 6×10^6/ml. 100 μl/well of the suspension was seeded into a microtiter plate.
Target cells were prepared as follows. 3700 kBq of ^51Cr (Amersham) was added to 1×10^6 YAC-1 cells (Dainippon Pharmaceutical). The cells were cultured at 37° C. for 1 hour for labeling. The labeled cells were washed twice and then suspended in RPMI-1640 medium containing 10% FCS at a concentration of 2×10^5 cells/ml. […] The radioactivity (experimental value) was measured using an auto gamma counter.
100 μl of the culture medium was added to the reaction system in place of the NK cells and the radioactivity was measured in order to measure the radioactivity spontaneously released from the target cells (control value).
Furthermore, the radioactivity released into the supernatant when 1% Triton (Nacalai Tesque) was added to the reaction system to lyse the 51Cr-labeled YAC-1 cells was measured in order to measure the total radioactivity contained in the reaction system (total radioactivity value).
The cytotoxicity (%) specifically mediated by the NK cells can be determined according to the following equation.
Cytotoxicity (%)=[(experimental value−control value)/(total radioactivity value−control value)]×100

[3] = test system: HL-60 (ATCC CCL-240) cells; assay: Viability and apoptosis of HL-60 cells (Trypan Blue, optical microscope); type: cell-based; settings: Homo sapiens, 24 hours, Trypan Blue, read-out: Viability50 (concentration that results in a viability of 50%)
Procedure: HL-60 (ATCC CCL-240) cells were cultured at 37° C. in RPMI 1640 medium (Bio Whittaker) containing 10% fetal calf serum (FCS; JRH) which had been treated at 56° C. for 30 minutes and suspended in RPMI 1640 medium at a concentration of 2.5×10^5 cells/5 ml.
10 μl each of solutions of diisobutyrylcyclopentenone, dimethoxyacetylcyclopentenone, dimethylfumarylcyclopentenone or dimethylmaleylcyclopentenone in 70% ethanol in water diluted to varying concentrations was added to 5 ml of the suspension. The mixtures were incubated at 37° C. for 24 hours in the presence of 5% Co2. 10 μl of aqueous actinomycin D (Sigma) solution (0.5 mg/ml), which is known as a reagent that induces apoptosis, was used in place of the sample and the mixture was incubated under the same conditions for confirmation.
The cultured cells were examined under an optical microscope.
Furthermore, a portion of the cells cultured as described above was stained with 0.4% Trypan Blue and examined under an optical microscope. The number of viable cells which were not stained and the number of dead cells which were stained blue were counted. The concentration of each of the samples that results in a viability of 50% (Viability50 μM) was determined.

topoisomerase II = biological target: T1, topoisomerase II (Homo sapiens, UniProt P11388); assay: Topoisomerase II inhibition, pBR322 DNA relaxation; type: biochemical; settings: 37° C., 30 minutes
T1 construct: purchased TopoGEN
T1 sequence (P11388 whole entry): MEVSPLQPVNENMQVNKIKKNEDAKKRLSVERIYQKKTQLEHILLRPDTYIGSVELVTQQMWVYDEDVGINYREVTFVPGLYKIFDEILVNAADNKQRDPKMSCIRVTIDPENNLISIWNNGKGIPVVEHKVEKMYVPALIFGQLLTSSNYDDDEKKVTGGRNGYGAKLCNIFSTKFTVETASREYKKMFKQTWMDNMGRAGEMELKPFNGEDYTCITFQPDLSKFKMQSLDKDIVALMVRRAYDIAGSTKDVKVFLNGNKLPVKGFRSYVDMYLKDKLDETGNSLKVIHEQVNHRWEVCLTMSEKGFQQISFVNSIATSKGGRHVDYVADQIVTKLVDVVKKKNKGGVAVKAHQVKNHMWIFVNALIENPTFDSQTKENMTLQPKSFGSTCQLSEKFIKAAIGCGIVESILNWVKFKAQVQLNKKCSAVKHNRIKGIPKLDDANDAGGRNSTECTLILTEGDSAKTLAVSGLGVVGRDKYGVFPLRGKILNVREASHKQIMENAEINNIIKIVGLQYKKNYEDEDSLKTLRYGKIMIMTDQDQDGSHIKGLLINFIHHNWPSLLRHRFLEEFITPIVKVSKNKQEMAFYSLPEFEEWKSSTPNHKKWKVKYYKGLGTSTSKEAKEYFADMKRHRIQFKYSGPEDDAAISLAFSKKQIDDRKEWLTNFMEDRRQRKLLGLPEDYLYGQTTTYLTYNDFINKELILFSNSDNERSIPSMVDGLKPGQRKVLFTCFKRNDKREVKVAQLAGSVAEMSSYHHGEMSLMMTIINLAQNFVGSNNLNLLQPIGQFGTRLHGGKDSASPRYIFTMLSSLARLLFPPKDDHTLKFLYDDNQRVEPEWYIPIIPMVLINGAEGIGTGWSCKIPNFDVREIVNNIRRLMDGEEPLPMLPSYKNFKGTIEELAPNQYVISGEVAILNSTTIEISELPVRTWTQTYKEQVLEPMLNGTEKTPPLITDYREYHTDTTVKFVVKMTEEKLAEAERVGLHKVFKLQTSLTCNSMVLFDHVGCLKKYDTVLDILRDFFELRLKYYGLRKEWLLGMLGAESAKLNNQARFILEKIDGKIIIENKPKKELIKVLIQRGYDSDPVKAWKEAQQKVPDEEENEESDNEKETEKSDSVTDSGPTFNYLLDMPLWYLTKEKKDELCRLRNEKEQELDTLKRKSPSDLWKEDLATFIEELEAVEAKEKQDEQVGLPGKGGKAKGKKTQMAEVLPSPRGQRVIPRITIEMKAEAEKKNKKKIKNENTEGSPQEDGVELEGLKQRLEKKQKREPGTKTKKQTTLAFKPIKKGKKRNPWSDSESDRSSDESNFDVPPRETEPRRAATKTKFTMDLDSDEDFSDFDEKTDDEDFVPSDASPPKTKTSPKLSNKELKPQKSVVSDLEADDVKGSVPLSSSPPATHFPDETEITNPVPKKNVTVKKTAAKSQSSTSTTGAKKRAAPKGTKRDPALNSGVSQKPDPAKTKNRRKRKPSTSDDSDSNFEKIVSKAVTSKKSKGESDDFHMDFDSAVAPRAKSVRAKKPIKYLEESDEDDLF
Procedure: (1) 2 μl of topoisomerase II (TopoGEN; 2 units/μl), 2 μl of 10-fold concentrated buffer [0.5 M Tris-HCl (pH 8.0), 1.2 M KCl, 0.1 M MgCl2, 2.5 mM adenosine triphosphate, 5 mM dithiothreitol], 2 μl of 0.1% bovine serum albumin (Takara Shuzo), 11 μl of distilled water and 2 μl of distilled water (control) or 2 μl of one of aqueous solutions of dipropionylcyclopentenone, diisobutyrylcyclopentenone, dibenzoylcyclopentenone, dihexanoylcyclopentenone, di-2-hexenoylcyclopentenone, dimethoxyacetylcyclopentenone, dimethylfumarylcyclopentenone or dimethylmaleylcyclopentenone at varying concentrations were mixed together. 1 μl of 0.25 μg/μl pBR322 DNA (Takara Shuzo) was added thereto. The resulting mixture was reacted at 37° C. After reacting for 30 minutes, 2 μl of an aqueous solution containing 1% sodium dodecyl sulfate, 50% glycerol and 0.02% Bromophenol Blue was added thereto to stop the reaction.
20 μl of the reaction mixture was applied to 1% agarose gel prepared using agarose L03 (Takara Shuzo) and TAE buffer [40 mM Tris, 5 mM sodium acetate, 1 mm ethylenediaminetetraacetic acid disodium salt (EDTA); adjusted to pH 7.8 using acetic acid] and electrophoresed in TAE buffer. After electrophoresis, the gel was soaked in a 1 μg/ml aqueous ethidium bromide solution. The gel was exposed to ultraviolet rays to visualize the electophoretic pattern of DNA.

Row | SMILES | Adhesion rate ([1]; 0.1 μM) | Adhesion rate ([1]; 1 μM) | Adhesion rate ([1]; 10 μM) | Adhesion rate ([1]; 100 μM) | Suppression of TNF-α-induced increase in adhesion rate (statement) [1] | 3H-thymidine uptake ([2]; 10 mg/kg intraperitoneal, no stimulation with cancer cell) | 3H-thymidine uptake ([2]; 10 mg/kg intraperitoneal, stimulation with cancer cell) | Growth of spleen lymphocytes on stimulation with cancer cells (statement) [2] | Activation of NK cells (statement) (NK cells) | pIC50 [3] | Concentration at which change of DNA from superhelical type to relaxed type was partially or completely inhibited (topoisomerase II) | 3H-thymidine uptake ([2]; 30 mg/kg intraperitoneal, no stimulation with cancer cell) | 3H-thymidine uptake ([2]; 30 mg/kg intraperitoneal, stimulation with cancer cell)
1 | O=C1C=CC(O)C1O (centres unmarked) [Cyclopentenone, 4,5-dihydroxy-2-cyclopenten-1-one] | 51.7% | 46.0% | 22.2% | 17.9% | suppressed | 9680 CPM | 25756 CPM | significantly enhanced | Activation of NK cells was observed | – | – | – | –
2 | COC(=O)/C=C\C(=O)OC1C=CC(=O)C1OC(=O)CCC(=O)OC (centres unmarked) [Dimethylmaleylcyclopentenone, dimethylmaleylcyclopentenone] | – | – | – | – | – | – | – | – | – | 5.47 | ≥ 5 µM | – | –
3 | N[C@@H](CCC(=O)N[C@@H](CSC1C=C(O)C(=O)C1)C(=O)NCC(=O)O)C(=O)O (some centres unmarked) [GM, 2-hydroxy-4-glutathion-S-yl-2-cyclopenten-1-one] | 53.9% | 48.3% | 23.9% | 16.3% | suppressed | – | – | significantly enhanced | Activation of NK cells was observed | – | – | 8700 CPM | 36291 CPM
